The results in this text go back to patent publication US8236801B2, “2-aza-bicyclo[2.2.1]heptane derivatives” (Actelion Pharmaceuticals Ltd., priority 2008, dated 2012).

One assay concerns the target T1, human orexin-1 receptor (Homo sapiens, UniProt O43613).
T1 construct: expressed in transfected cells; host or cells: Chinese hamster ovary (CHO) cells, G418 selection
T1 sequence (O43613 1-425): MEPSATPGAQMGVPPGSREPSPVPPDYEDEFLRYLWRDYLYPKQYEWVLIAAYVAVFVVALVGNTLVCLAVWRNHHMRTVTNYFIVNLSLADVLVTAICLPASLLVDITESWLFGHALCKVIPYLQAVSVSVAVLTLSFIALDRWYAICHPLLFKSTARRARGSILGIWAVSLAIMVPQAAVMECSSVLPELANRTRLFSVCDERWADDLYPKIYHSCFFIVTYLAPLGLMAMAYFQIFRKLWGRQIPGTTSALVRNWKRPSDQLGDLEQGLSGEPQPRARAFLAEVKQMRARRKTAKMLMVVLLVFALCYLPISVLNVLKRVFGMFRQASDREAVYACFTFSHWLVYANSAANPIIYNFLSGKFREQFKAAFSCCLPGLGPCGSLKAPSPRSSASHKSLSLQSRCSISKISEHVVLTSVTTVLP
Nature of the assay: FLIPR calcium assay, antagonism of orexin-A in CHO cells expressing the human orexin-1 receptor. Format: cell-based. Conditions: measured with FLIPR Tetra (marked *); 3 nM orexin-A; CHO cells; read-out: OX1 IC50. As for the experimental part: (§1) Chinese hamster ovary (CHO) cells expressing the human orexin-1 receptor and the human orexin-2 receptor, respectively, are grown in culture medium (Ham F-12 with L-Glutamine) containing 300 μg/ml G418, 100 U/ml penicillin, 100 μg/ml streptomycin and 10% heat inactivated fetal calf serum (FCS). The cells are seeded at 20′000 cells/well into 384-well black clear bottom sterile plates (Greiner). The seeded plates are incubated overnight at 37° C. in 5% CO2. Human orexin-A as an agonist is prepared as 1 mM stock solution in MeOH:water (1:1), diluted in HBSS containing 0.1% bovine serum albumin (BSA), NaHCO3: 0.375 g/l and 20 mM HEPES for use in the assay at a final concentration of 3 nM. Antagonists are prepared as 10 mM stock solution in DMSO, then diluted in 384-well plates, first in DMSO, then in HBSS containing 0.1% bovine serum albumin (BSA), NaHCO3: 0.375 g/l and 20 mM HEPES. On the day of the assay, 50 μl of staining buffer (HBSS containing 1% FCS, 20 mM HEPES, NaHCO3: 0.375 g/l, 5 mM probenecid (Sigma) and 3 μM of the fluorescent calcium indicator fluo-4 AM (1 mM stock solution in DMSO, containing 10% pluronic) is added to each well. The 384-well cell-plates are incubated for 50 min at 37° C. in 5% CO2 followed by equilibration at rt for 30-120 min before measurement. Within the Fluorescent Imaging Plate Reader (FLIPR2 or FLIPR Tetra, Molecular Devices), antagonists are added to the plate in a volume of 10 μl/well, incubated for 10 min and finally 10 μl/well of agonist is added. Fluorescence is measured for each well at 1 second intervals, and the height of each fluorescence peak is compared to the height of the fluorescence peak induced by 3 nM orexin-A with vehicle in place of antagonist. For each antagonist, the IC50 value (the concentration of compound needed to inhibit 50% of the agonistic response) is determined. Optimized conditions may be achieved by adjustment of pipetting speed and cell splitting regime. The calculated IC50 values of the compounds may fluctuate depending on the daily cellular assay performance. Fluctuations of this kind are known to those skilled in the art.

For a further assay, the target named is T2, human orexin-2 receptor (Homo sapiens, UniProt O43614).
T2 construct: expressed in transfected cells; host or cells: Chinese hamster ovary (CHO) cells, G418 selection
T2 sequence (O43614 1-444): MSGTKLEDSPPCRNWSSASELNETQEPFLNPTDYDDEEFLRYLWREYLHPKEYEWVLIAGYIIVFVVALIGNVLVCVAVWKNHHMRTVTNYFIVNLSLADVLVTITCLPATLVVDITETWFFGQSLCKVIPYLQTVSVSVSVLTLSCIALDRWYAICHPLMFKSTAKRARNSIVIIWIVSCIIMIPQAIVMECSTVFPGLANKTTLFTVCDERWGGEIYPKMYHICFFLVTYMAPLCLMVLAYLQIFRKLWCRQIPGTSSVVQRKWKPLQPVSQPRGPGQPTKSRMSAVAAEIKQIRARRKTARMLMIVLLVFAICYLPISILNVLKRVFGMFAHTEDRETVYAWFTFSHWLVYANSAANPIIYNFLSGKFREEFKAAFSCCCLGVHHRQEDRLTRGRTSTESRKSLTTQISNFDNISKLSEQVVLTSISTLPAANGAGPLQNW
Nature of the assay: FLIPR calcium assay, antagonism of orexin-A in CHO cells expressing the human orexin-2 receptor. Format: cell-based. As to conditions: measured with FLIPR Tetra (marked *); 3 nM orexin-A; CHO cells; read-out: OX2 IC50. As for the experimental part: as §1

Usually IC50 stands for the concentration that inhibits the measured activity by half. In the case of `O=C(NC[C@@H]1[C@H]2CC[C@H](C2)N1C(=O)c1nccnc1-c1ccc2cc[nH]c2c1)c1cccc2ncsc12` [Example 109, Benzothiazole-7-carboxylic acid {(1R,3S,4S)-2-[3-(1H-indol-6-yl)-pyrazine-2-carbonyl]-2-aza-bicyclo[2.2.1]hept-3-ylmethyl}-amide], the IC50 on human orexin-1 receptor turned out to be 707 nM; at human orexin-2 receptor it was 19 nM.
